Tests used:
Experiment in all cases: prolyl hydroxylation assay of HIF-1α peptide, VBC binding by fluorescence polarization
Type in all cases: biochemical
HIF-PHD2 = biological target: T1, HIF-PHD2 (Homo sapiens, UniProt Q9GZT9)
T1 construct: gene EGLN1

HIF-PHD1 = biological target: T2, HIF-PHD1 (Homo sapiens, UniProt Q96KS0)
T2 construct: gene EGLN2

HIF-PHD3 = biological target: T3, HIF-PHD3 (Homo sapiens, UniProt Q9H6Z9)
T3 construct: gene EGLN3
T3 sequence (Q9H6Z9 whole entry): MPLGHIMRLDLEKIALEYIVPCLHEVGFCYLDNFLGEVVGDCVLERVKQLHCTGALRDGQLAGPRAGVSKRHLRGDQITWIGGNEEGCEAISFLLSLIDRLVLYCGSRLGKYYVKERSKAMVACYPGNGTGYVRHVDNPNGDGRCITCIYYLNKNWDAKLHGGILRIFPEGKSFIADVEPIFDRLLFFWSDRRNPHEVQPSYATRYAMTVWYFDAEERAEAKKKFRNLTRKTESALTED

T2 sequence (Q96KS0 whole entry): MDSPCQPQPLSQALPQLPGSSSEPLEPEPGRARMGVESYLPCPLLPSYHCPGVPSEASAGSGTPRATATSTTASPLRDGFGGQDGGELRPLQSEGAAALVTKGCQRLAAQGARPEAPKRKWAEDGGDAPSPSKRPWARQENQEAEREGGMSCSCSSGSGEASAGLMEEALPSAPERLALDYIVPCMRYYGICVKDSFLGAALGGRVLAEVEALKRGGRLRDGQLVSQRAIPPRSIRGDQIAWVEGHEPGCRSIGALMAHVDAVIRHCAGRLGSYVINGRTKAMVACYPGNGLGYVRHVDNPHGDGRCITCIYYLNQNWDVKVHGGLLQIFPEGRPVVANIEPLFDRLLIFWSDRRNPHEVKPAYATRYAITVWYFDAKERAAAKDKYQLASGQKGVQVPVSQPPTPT
T1 sequence (Q9GZT9 2-426): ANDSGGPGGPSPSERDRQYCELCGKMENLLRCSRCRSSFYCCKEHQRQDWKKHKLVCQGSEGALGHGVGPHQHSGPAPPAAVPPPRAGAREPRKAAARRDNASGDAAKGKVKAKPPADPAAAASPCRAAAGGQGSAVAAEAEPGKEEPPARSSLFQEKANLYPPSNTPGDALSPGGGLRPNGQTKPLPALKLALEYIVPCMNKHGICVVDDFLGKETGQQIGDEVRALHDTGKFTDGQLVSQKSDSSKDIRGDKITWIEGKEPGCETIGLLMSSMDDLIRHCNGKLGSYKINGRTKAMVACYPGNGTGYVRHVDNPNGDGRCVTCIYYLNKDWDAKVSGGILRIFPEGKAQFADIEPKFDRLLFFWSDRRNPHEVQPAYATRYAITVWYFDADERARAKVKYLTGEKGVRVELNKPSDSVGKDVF

IC50 (HIF-PHD2): 20 nM
IC50 (HIF-PHD1): 30 nM
IC50 (HIF-PHD3): 80 nM
Substance: CG-598

Source: article PMC7840603, “Local Stabilization of Hypoxia-Inducible Factor-1α Controls Intestinal Inflammation via Enhanced Gut Barrier Function and Immune Regulation” (Frontiers in Immunology, 2021)
